# Laboratory results from patent US20250197372A1 (priority 2020, published 2025).
# What was measured:
# Type in all cases: biochemical
# [1] = biological target: recombinant human GAA (acid alpha-glucosidase) (Homo sapiens, UniProt P10253); experiment: Acid alpha-glucosidase (GAA) assay (4-methylumbelliferyl-alpha-D-pyranoside substrate, fluorescence)
# Outline: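 Recombinant human enzyme preincubated 60 min at 37 °C with compound dilutions, then 4-methylumbelliferyl-alpha-D-pyranoside substrate added for 20 min at 37 °C. Stopped with glycine/NaOH pH 10; methylumbelliferone fluorescence (ex 365, em 440 nm) versus untreated enzyme; IC50 by 4-PL fit.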
# [2] = biological target: T1, recombinant human GBA (beta-glucocerebrosidase) (Homo sapiens, UniProt P04062); experiment: Beta-glucocerebrosidase (GBA, glucosylceramidase) assay (4-methylumbelliferyl-beta-D-pyranoside substrate, fluorescence)
# T1 sequence (P04062 40-536): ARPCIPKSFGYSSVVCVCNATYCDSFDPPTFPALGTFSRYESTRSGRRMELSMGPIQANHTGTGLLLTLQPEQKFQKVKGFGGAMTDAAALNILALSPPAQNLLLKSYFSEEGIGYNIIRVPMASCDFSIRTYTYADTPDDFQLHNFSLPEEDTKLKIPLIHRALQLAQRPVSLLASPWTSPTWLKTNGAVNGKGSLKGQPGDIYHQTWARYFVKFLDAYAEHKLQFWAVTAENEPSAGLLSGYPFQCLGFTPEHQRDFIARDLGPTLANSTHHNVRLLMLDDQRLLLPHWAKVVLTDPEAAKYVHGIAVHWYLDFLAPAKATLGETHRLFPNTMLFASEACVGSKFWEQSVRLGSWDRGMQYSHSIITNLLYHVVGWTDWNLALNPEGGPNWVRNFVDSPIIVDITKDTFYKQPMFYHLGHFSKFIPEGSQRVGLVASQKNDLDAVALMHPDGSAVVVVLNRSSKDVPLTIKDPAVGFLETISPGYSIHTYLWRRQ
# Outline: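 Recombinant human GBA preincubated with compound dilutions 60 min at 37 °C, then 4-methylumbelliferyl-beta-D-pyranoside added for 60 min at 37 °C. Stopped at pH 10 (glycine/NaOH); fluorescence ex 365/em 440 nm. IC50 from 4-PL fit of inhibition relative to untreated enzyme.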
# [3] = biological target: rat sucrase (partially purified alpha-glucosidase from intestinal rat powder) (Rattus norvegicus, UniProt P23739); experiment: Intestinal alpha-glucosidase assay, sucrose substrate (Glucose GO Kit)
# Sequence of rat sucrase (partially purified alpha-glucosidase from intestinal rat powder) (P23739 whole entry): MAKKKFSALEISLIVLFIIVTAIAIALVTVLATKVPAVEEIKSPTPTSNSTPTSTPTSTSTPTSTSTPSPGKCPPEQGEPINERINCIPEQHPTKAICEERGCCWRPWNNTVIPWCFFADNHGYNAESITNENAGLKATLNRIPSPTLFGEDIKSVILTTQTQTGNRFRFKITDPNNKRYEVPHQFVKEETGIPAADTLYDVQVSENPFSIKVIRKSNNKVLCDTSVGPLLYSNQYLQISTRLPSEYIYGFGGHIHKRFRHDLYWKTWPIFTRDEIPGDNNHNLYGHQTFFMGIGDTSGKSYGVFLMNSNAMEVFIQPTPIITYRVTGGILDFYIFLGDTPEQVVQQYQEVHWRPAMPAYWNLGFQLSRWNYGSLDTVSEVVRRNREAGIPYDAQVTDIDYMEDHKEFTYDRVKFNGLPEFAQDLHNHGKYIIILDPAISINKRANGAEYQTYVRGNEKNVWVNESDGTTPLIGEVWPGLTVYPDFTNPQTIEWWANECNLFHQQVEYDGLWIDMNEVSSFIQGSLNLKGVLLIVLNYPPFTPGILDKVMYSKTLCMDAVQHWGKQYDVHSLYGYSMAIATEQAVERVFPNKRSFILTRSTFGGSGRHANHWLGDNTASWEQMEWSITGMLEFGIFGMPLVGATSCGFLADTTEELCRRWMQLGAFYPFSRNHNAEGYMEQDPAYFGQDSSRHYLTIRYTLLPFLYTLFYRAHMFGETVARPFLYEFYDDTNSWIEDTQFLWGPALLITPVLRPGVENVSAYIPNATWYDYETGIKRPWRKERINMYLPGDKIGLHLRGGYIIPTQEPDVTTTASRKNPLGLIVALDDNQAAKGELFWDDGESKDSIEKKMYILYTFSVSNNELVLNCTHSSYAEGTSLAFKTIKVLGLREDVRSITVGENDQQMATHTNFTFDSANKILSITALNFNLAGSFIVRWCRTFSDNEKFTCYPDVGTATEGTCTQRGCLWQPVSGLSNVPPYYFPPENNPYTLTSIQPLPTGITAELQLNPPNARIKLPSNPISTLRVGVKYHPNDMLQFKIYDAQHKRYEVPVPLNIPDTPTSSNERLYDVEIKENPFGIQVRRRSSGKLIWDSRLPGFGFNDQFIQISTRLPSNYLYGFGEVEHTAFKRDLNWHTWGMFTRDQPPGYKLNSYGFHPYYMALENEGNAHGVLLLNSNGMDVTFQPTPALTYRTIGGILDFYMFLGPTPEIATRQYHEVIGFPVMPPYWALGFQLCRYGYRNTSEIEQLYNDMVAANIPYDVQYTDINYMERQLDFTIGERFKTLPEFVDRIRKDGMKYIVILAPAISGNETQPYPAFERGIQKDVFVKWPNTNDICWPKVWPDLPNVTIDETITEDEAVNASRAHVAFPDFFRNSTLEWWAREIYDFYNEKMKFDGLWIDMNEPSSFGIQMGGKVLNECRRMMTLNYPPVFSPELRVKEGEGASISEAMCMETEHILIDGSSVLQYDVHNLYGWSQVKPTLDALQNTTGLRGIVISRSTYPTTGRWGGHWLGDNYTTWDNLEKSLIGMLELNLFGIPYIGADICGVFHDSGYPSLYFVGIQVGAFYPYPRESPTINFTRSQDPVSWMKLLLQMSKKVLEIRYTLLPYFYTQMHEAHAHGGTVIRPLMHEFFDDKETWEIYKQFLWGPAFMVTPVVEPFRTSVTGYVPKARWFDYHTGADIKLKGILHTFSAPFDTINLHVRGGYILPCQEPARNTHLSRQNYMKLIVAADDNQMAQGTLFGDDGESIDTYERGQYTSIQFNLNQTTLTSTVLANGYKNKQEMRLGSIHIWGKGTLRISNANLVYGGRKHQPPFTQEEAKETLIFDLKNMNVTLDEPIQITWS
# Outline: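 Enzyme from intestinal rat powder, partially purified, is exposed to compound for 60 min at 37 °C. Disaccharide substrate (maltose or sucrose respectively) then reacts 30 min at 37 °C. Heat-stopped samples are assayed for glucose, and percent inhibition versus concentration gives IC50 via 4-PL.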
compound,measurement,setting,value
"O=C(O)c1cc(Cl)cc(NCCc2ccc(CCN3C[C@H](O)[C@@H](O)[C@H](O)[C@H]3CO)cc2)c1 [Compound 1117, 3-chloro-5-{[2-(4-{2-[(2R,3R,4R,5S)-3,4,5-trihydroxy-2-(hydroxymethyl)piperidin-1-yl]ethyl}phenyl)ethyl]amino}benzoic acid]",IC50,[1],498 nM
same,IC50,[2],18100 nM
same,IC50,[3],483 nM
"OC[C@@H]1[C@@H](O)[C@H](O)[C@@H](O)CN1Cc1ccc(CNc2ccc(-c3ccc[nH]3)cc2)cc1 [Compound 1094, (2R,3R,4R,5S)-2-(hydroxymethyl)-1-{[4-({[4-(1H-pyrrol-2-yl)phenyl]amino}methyl)phenyl]methyl}piperidine-3,4,5-triol]",IC50,[1],246 nM
same,IC50,[2],12300 nM
same,IC50,[3],57 nM
"Cc1cc(CN2CCOCC2)cc(NCCCCCCN2C[C@H](O)[C@@H](O)[C@H](O)[C@H]2CO)c1 [Compound 1003, (2R,3R,4R,5S)-2-(hydroxymethyl)-1-[6-({3-methyl-5-[(morpholin-4-yl)methyl]phenyl}amino)hexyl]piperidine-3,4,5-triol]",IC50,[1],299 nM
same,IC50,[2],7680 nM
same,IC50,[3],382 nM
"O=C(O)c1cc(NCCCCCCN2C[C@H](O)[C@@H](O)[C@H](O)[C@H]2CO)cc(-c2ncccn2)c1 [Compound 1118, 3-(pyrimidin-2-yl)-5-({6-[(2R,3R,4R,5S)-3,4,5-trihydroxy-2-(hydroxymethyl)piperidin-1-yl]hexyl}amino) benzoic acid]",IC50,[1],27 nM
same,IC50,[2],2430 nM
same,IC50,[3],58 nM
"N#Cc1cc(NCc2cccc(CN3C[C@H](O)[C@@H](O)[C@H](O)[C@H]3CO)c2)cc(-c2ncccn2)c1 [Compound 1047, 3-(pyrimidin-2-yl)-5-{[(3-{[(2R,3R,4R,5S)-3,4,5-trihydroxy-2-(hydroxymethyl)piperidin-1-yl]methyl}phenyl)methyl]amino}benzonitrile]",IC50,[1],1470 nM
same,IC50,[2],87300 nM
same,IC50,[3],11 nM
"CS(=O)(=O)c1cc(NCc2ccc(CN3C[C@H](O)[C@@H](O)[C@H](O)[C@H]3CO)cc2)cc(-c2ncccn2)c1 [Compound 1059, (2R,3R,4R,5S)-2-(hydroxymethyl)-1-{[4-({[3-methanesulfonyl-5-(pyrimidin-2-yl)phenyl]amino}methyl)phenyl]methyl}piperidine-3,4,5-triol]",IC50,[1],74 nM
same,IC50,[2],> 100000 nM
same,IC50,[3],45 nM
"COc1cc(NCCc2ccc(CCN3C[C@H](O)[C@@H](O)[C@H](O)[C@H]3CO)cc2)cc(-c2noc(C3CCC3)n2)c1 [Compound 1120, (2R,3R,4R,5S)-1-{2-[4-(2-{[3-(5-cyclobutyl-1,2,4-oxadiazol-3-yl)-5-methoxyphenyl]amino}ethyl)phenyl]ethyl}-2-(hydroxymethyl)piperidine-3,4,5-triol]",IC50,[1],581 nM
same,IC50,[2],13 nM
same,IC50,[3],506 nM
"O=S(=O)(Nc1cc(NCCCCCCN2C[C@H](O)[C@@H](O)[C@H](O)[C@H]2CO)cc(-c2ncccn2)c1)C1CC1 [Compound 1114, N-[3-(pyrimidin-2-yl)-5-({6-[(2R,3R,4R,5S)-3,4,5-trihydroxy-2-(hydroxymethyl)piperidin-1-yl]hexyl}amino)phenyl]cyclopropanesulfonamide]",IC50,[1],16 nM
same,IC50,[2],5140 nM
same,IC50,[3],52 nM
"O=[N+]([O-])c1cc(-c2ncco2)ccc1NCCc1ccc(CCN2C[C@H](O)[C@@H](O)[C@H](O)[C@H]2CO)cc1 [Compound 1112, (2R,3R,4R,5S)-2-(hydroxymethyl)-1-{2-[4-(2-{[2-nitro-4-(1,3-oxazol-2-yl)phenyl]amino}ethyl)phenyl]ethyl}piperidine-3,4,5-triol]",IC50,[1],105 nM
same,IC50,[2],4990 nM
same,IC50,[3],915 nM
"N#Cc1cc(NCc2ccc(CN3C[C@H](O)[C@@H](O)[C@H](O)[C@H]3CO)cc2)cc(-c2ccc[nH]2)c1 [Compound 1063, 3-(1H-pyrrol-2-yl)-5-{[(4-{[(2R,3R,4R,5S)-3,4,5-trihydroxy-2-(hydroxymethyl)piperidin-1-yl]methyl}phenyl)methyl]amino}-benzonitrile]",IC50,[1],32 nM
same,IC50,[2],> 100000 nM
same,IC50,[3],< 1 nM
O=[N+]([O-])c1cc(CN2CCCO2)ccc1NCc1cccc(CN2C[C@H](O)[C@@H](O)[C@H](O)[C@H]2CO)c1 [Compound 1086],IC50,[1],976 nM
same,IC50,[2],> 100000 nM
same,IC50,[3],76 nM
"O=[N+]([O-])c1cc(-c2ncccn2)ccc1NCc1ccc(CN2C[C@H](O)[C@@H](O)[C@H](O)[C@H]2CO)cc1 [Compound 1102, (2R,3R,4R,5S)-2-(hydroxymethyl)-1-{[4-({[2-nitro-4-(pyrimidin-2-yl)phenyl]amino}methyl)phenyl]methyl}piperidine-3,4,5-triol]",IC50,[1],28 nM
same,IC50,[2],28700 nM
same,IC50,[3],< 1 nM
"Cc1cc(NCc2ccc(CN3C[C@H](O)[C@@H](O)[C@H](O)[C@H]3CO)cc2)cc(N2CCOCC2)c1 [Compound 1048, (2R,3R,4R,5S)-2-(hydroxymethyl)-1-{[4-({[3-methyl-5-(morpholin-4-yl)phenyl]amino}methyl)phenyl]methyl}piperidine-3,4,5-triol]",IC50,[1],366 nM
same,IC50,[2],> 100000 nM
same,IC50,[3],59 nM
"[N-]=[N+]=Nc1ccc(NCC[C@H]2CC[C@H](CCN3C[C@H](O)[C@@H](O)[C@H](O)[C@H]3CO)CC2)c([N+](=O)[O-])c1 [Compound 1107, (2R,3R,4R,5S)-2-(hydroxymethyl)-1-{2-[(1r,4r)-4-{2-[(4-azido-2-nitrophenyl)amino]ethyl}cyclohexyl]ethyl}piperidine-3,4,5-triol]",IC50,[1],3190 nM
same,IC50,[2],362 nM
same,IC50,[3],576 nM
"N#Cc1cc(NCc2ccc(CN3C[C@H](O)[C@@H](O)[C@H](O)[C@H]3CO)cc2)cc(N2CCOCC2)c1 [Compound 1060, 3-(morpholin-4-yl)-5-{[(4-{[(2R,3R,4R,5S)-3,4,5-trihydroxy-2-(hydroxymethyl)piperidin-1-yl]methyl}phenyl)methyl]amino}-benzonitrile]",IC50,[1],86 nM
same,IC50,[2],> 100000 nM
same,IC50,[3],52 nM
"O=[N+]([O-])c1cc(-c2ccc[nH]2)ccc1NCc1cccc(CN2C[C@H](O)[C@@H](O)[C@H](O)[C@H]2CO)c1 [Compound 1088, (2R,3R,4R,5S)-2-(hydroxymethyl)-1-{[3-({[2-nitro-4-(1H-pyrrol-2-yl)phenyl]amino}methyl)phenyl]methyl}piperidine-3,4,5-triol]",IC50,[1],1950 nM
same,IC50,[2],68400 nM
same,IC50,[3],< 1 nM
"O=[N+]([O-])c1cc(-c2ccc[nH]2)ccc1NCc1ccc(CN2C[C@H](O)[C@@H](O)[C@H](O)[C@H]2CO)cc1 [Compound 1100, (2R,3R,4R,5S)-2-(hydroxymethyl)-1-{[4-({[2-nitro-4-(1H-pyrrol-2-yl)phenyl]amino}methyl)phenyl]methyl}piperidine-3,4,5-triol]",IC50,[1],161 nM
same,IC50,[2],41700 nM
same,IC50,[3],2 nM
"OC[C@@H]1[C@@H](O)[C@H](O)[C@@H](O)CN1Cc1cccc(CNc2ccc(-c3ncccn3)cc2)c1 [Compound 1084, (2R,3R,4R,5S)-2-(hydroxymethyl)-1-{[3-({[4-(pyrimidin-2-yl)phenyl]amino}methyl)phenyl]methyl}piperidine-3,4,5-triol]",IC50,[1],2350 nM
same,IC50,[2],> 100000 nM
same,IC50,[3],44 nM
